These results are taken from paper PMC10177380 (Cancers, 2023).

In experiment [1] the test system is BE2C neuroblastoma. Description: MTT growth inhibition, 72 h, BE2C. Type of experiment: cell-based. As to conditions: for GI50: BE2C, MTT, 72 h.
Experiment [2] deals with Du145 prostate. The experiment can be described thus: MTT growth inhibition, 72 h, Du145. Type of experiment: cell-based. Particulars: for GI50: Du145, MTT, 72 h.
Experiment [3] relates to H460 lung. Description: MTT growth inhibition, 72 h, H460. Type of experiment: cell-based. Particulars: H460, MTT, 72 h.
Experiment [4] addresses T1, COX-2 (human) (Homo sapiens, UniProt P35354).
T1 construct: purchased Cayman Chemical Item No. 701080
T1 sequence (P35354 18-604): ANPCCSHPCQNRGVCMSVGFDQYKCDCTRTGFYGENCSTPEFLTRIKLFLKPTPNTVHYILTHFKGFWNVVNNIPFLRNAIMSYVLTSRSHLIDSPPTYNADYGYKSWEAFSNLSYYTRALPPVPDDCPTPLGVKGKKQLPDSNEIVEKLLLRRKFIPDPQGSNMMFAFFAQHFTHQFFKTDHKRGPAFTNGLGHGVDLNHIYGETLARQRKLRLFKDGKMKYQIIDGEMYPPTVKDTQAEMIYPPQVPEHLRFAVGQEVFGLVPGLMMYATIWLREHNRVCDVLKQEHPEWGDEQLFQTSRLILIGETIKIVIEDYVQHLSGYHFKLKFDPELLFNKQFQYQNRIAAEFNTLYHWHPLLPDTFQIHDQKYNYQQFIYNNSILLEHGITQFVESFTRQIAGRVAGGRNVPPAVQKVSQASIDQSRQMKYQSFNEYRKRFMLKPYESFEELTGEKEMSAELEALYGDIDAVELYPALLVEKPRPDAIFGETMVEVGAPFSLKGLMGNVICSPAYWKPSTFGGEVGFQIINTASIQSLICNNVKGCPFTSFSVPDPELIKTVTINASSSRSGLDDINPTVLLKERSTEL
The experiment can be described thus: COX-2 (human) Inhibitor Screening Assay Kit (ELISA). Type of experiment: biochemical. Set-up: concentration or dose not given beside the values. The source says:
NSAIDs are well recognised as inhibitors of the COX enzymes, COX-1 and COX-2 [37, 42, 45]. […] COX-1 is typically expressed in most tissues and is associated with normal physiological functions, particularly by maintaining prostaglandin production at basal levels. In contrast, COX-2 is involved in the excessive production of prostaglandin during inflammation (or hypoxia), and extensive studies have shown that COX-2 resultant prostaglandins are overexpressed in tumours. […] To explore the COX-2 inhibitory properties of the studied complexes (1–6), ELISA was used against the COX-2 enzyme. […]
6. Cyclooxygenase-2 (COX-2) Inhibition
The standards, samples and assay preparation, and completion were achieved as instructed by the manufacturer. The assay necessitated three steps, being the standards preparation, the COX reaction, and the enzyme immunoassay. The standards were prepared in 2-fold serial dilution of the prostaglandin F2α enzyme-linked immunosorbent assay (ELISA) standard starting at 500 pg/mL to 3.9 pg/mL in ELISA buffer (1X). The COX reaction dilution preparation for the background samples included the addition of background COX-2 (20 μL), which was inactivated in boiling water for 3 min. The background values were generated by adding 10 μL of the inactivated COX-2, 160 μL of the reaction buffer (1X), 10 μL of heme and 10 μL of DMSO (inhibitor vehicle). The COX reaction dilution preparation for the COX-2 100% initial activity samples included the addition 160 μL of the reaction buffer (1X), 10 μL of heme, 10 μL of COX-2 and 10 μL of DMSO (inhibitor vehicle). The COX reaction dilution preparation for the COX-2 inhibitor samples included the addition of 160 μL of the reaction buffer (1X), 10 μL of heme, 10 μL […]
The reaction was then initiated by the addition of 10 μL of arachidonic acid and potassium hydroxide solution (1:1), and […]
enzyme catalysis. The tubes were then vortexed and incubated for 5 min at room […]
temperature. The background samples were diluted with ELISA buffer (1X) 1:100 times […]
and the COX-2 100% initial activity and COX-2 inhibitor samples were diluted 1:2000 and […]
1:4000 times. For the enzyme immunoassay, 100 μL of the ELISA buffer (1X) was added […]
to non-specific binding wells (NSBs), 50 μL of the ELISA buffer (1X) was added to […]
maximum binding wells (B0) and 50 μL of each prostaglandin F2α standard was added to […]
standard wells in duplicates. 50 μL of background sample and 50 μL of COX-2 100% […]
initial activity samples were independently added to the wells in duplicates. Inhibitor […]
samples (50 μL) being investigated were added to the wells in triplicates. Prostaglandin […]
F2α acetyl-cholinesterase (AChE) tracer (50 μL) was added to all wells but the total […]
activity well and blank wells. Prostaglandin F2α ELISA antiserum (50 μL) was added to […]
each well but the total activity well, NSBs and blank wells. The plate was then covered […]
with a plastic seal and incubated overnight at room temperature on an orbital shaker. The […]
wells were then washed five times using kit wash buffer (1X). Ellman’s reagent (200 μL) […]
was then added to each well, as well as 5 μL of the AChE tracer into the total activity […]
well. The plate was then covered with the plastic seal, placed on an orbital shaker in the […]
dark to develop for 2 hours at room temperature. […]
nm using the SpectraMax M2 series multi-mode microplate reader (Molecular Devices, […]
In general terms: An ELISA detects its analyte on a solid surface through an enzyme-linked reagent.

Experiment [5] has as its system HT29 colon cells. The experiment can be described thus: Mitochondrial membrane potential, TMRE-MtMP assay. As to conditions: treatment at GI50 concentration (FCCP positive control 20 μM). Type of experiment: cell-based, human. The source says:
To study the MtMP changes in treated cells, a TMRE-MtMP Assay Kit (Abcam, Cambridge, MA, USA) was used (see Supplementary Materials).
TMRE was used to stain HT29 colon cells, and treatment with the complexes and ligands was completed at each specific GI50 concentration. The MtMP changes detected are expressed as RFU. Additionally, lower RFU values correspond to a decline in mitochondrial activity. […]
dimethylthiazol-2-yl]-2,5-diphenyltetrazolium bromide) assay and absorbance was read at 540 nm. An eight-point dose response curve was produced from which the GI50 value was calculated, representing the drug concentration at which cell growth was inhibited by 50% based on the difference between the optical density values on day 0 and those at the end of drug exposure. […]
5. Mitochondrial Membrane Potential (MtMP)
In 96-well plates, 25,000 cells/mL of HT29 colon cells in DMEM were seeded. Cells were treated with a GI50 drug concentration for each complex. […]
washed with PBS and stained with 1 μM tetramethylrhodamine, ethyl ester (TMRE) and incubated for 30 min. TMRE was then removed, and cells were then re-washed with PBS (0.2% BSA), after which phenol red free media was added. The plates were directly scanned to measure fluorescence (expressed as RFU), using the Glo-Max®-Multimode […]
microplate reader (Promega Corporation, Alexandra, VIC, Australia) at an […]
For the positive control, 20 μM carbonyl cyanide 4-(trifluoromethoxy) phenylhydrazone (FCCP)) was added to the cells and incubated for 10 min. The cells were washed with PBS (0.2% BSA) and stained with TMRE (1 μM) for 30 min; this was removed and phenol red free media was added, and the final solution was scanned as mentioned above. […]

For the molecule `COc1ccc2c(c1)c(CC(=O)OCC(=O)O)c(C)n2C(=O)c1ccc(Cl)cc1` [ACE, acemetacin], the GI50 (usually the concentration that inhibits growth by half) in experiment [1] (Homo sapiens, BE(2)-C) is greater than 50000 nM; in experiment [2] (Homo sapiens, DU-145), greater than 50000 nM; in experiment [3] (Homo sapiens, NCI-H460), greater than 50000 nM. Further, in experiment [4], the “Percentage COX-2 Inhibitory Activity” value turned out to be 76 ± 8%. Moreover, the “MtMP Changes” value in experiment [5] (HT29, 24 h) is given as 494 ± 6 RFU; in experiment [5] (HT29, 48 h) it was 371 ± 10 RFU; in experiment [5] (HT29, 72 h), 295 ± 13 RFU.

Regarding `N.N.[Cl][Pt][Cl]` [Cisplatin, cis-diamminedichloroplatinum(II)], the “Percentage COX-2 Inhibitory Activity” value in experiment [4] is reported as 9 ± 2%. Besides, the “MtMP Changes” value in experiment [5] (HT29, 24 h) is 256 ± 9 RFU; in experiment [5] (HT29, 48 h), 236 ± 13 RFU; in experiment [5] (HT29, 72 h), 199 ± 11 RFU.

As to `COc1ccc2cc([C@H](C)C(=O)[O][Pt+2]3([OH])[N]4C=CC=c5ccc6c(c54)[N]3C=CC=6)ccc2c1.N[C@H]1CCCC[C@@H]1N` [Complex 1, [Pt^IV(phen)(SS-DACH)(NPX)(OH)]^2+], the values for the GI50 in experiment [1], in experiment [2] and in experiment [3] were 1470 ± 67 nM, 230 ± 17 nM and 860 ± 124 nM, respectively. In addition, in experiment [4], the “Percentage COX-2 Inhibitory Activity” value is 55 ± 3%. Further, the “MtMP Changes” value in experiment [5] (HT29, 24 h) came out at 382 ± 11 RFU; in experiment [5] (HT29, 48 h) it was 211 ± 12 RFU; in experiment [5] (HT29, 72 h) it was 163 ± 5 RFU.

As to `COc1ccc2cc([C@H](C)C(=O)[O][Pt+2]3([OH])[N]4C=CC=c5cc(C)c6c(c54)[N]3C=CC=6)ccc2c1.N[C@H]1CCCC[C@@H]1N` (stereo partly drawn) [Complex 2, [Pt^IV(5-Mephen)(SS-DACH)(NPX)(OH)]^2+], the GI50 in experiment [1] was determined as 680 ± 17 nM; in experiment [2], 130 ± 27 nM; in experiment [3] it was 410 ± 37 nM. For the same molecule, the “Percentage COX-2 Inhibitory Activity” value in experiment [4] amounted to 44 ± 6%. Further, the “MtMP Changes” value in experiment [5] (HT29, 24 h) amounted to 368 ± 9 RFU; in experiment [5] (HT29, 48 h), 160 ± 13 RFU; in experiment [5] (HT29, 72 h), 130 ± 7 RFU.

Take `COc1ccc2cc([C@H](C)C(=O)[O][Pt+2]3([OH])[N]4C=CC=c5c(C)c(C)c6c(c54)[N]3C=CC=6)ccc2c1.N[C@H]1CCCC[C@@H]1N` [Complex 3, [Pt^IV(5,6-Me2phen)(SS-DACH)(NPX)(OH)]^2+]: the GI50 in experiment [1] came out at 220 ± 12 nM; in experiment [2] it was 10 ± 2 nM; in experiment [3], 56 ± 5 nM. Also, the “Percentage COX-2 Inhibitory Activity” value in experiment [4] was determined as 37 ± 4%. In addition, the “MtMP Changes” value in experiment [5] (HT29, 24 h) was 351 ± 5 RFU; in experiment [5] (HT29, 48 h) it was 152 ± 8 RFU; in experiment [5] (HT29, 72 h) it was 104 ± 6 RFU.

In the case of `COc1ccc2c(c1)c(CC(=O)OCC(=O)[O][Pt-2]13([OH])([NH2+][C@H]4CCCC[C@@H]4[NH2+]1)[n+]1cccc4ccc5ccc[n+]3c5c41)c(C)n2C(=O)c1ccc(Cl)cc1` [Complex 4, [Pt^IV(phen)(SS-DACH)(ACE)(OH)]^2+], the GI50 in experiment [1] turned out to be 1300 ± 150 nM; in experiment [2], 150 ± 40 nM; in experiment [3] it was 610 ± 80 nM. Also, the “Percentage COX-2 Inhibitory Activity” value in experiment [4] came out at 48 ± 3%. Also, the “MtMP Changes” value in experiment [5] (HT29, 24 h) is recorded as 416 ± 8 RFU; in experiment [5] (HT29, 48 h), 343 ± 8 RFU; in experiment [5] (HT29, 72 h) it was 184 ± 5 RFU.

Consider `COc1ccc2c(c1)c(CC(=O)OCC(=O)[O][Pt-2]13([OH])([NH2+][C@H]4CCCC[C@@H]4[NH2+]1)[n+]1cccc4cc(C)c5ccc[n+]3c5c41)c(C)n2C(=O)c1ccc(Cl)cc1` [Complex 5, [Pt^IV(5-Mephen)(SS-DACH)(ACE)(OH)]^2+], for which, in experiment [1], the “fold decrease of GI50 relative to the platinum(IV) scaffold” value came to 5.6 fold and the GI50 is 250 ± 33 nM. Besides, in experiment [2], the “fold more potent than carboplatin” value is reported as 11,540 fold, the “fold more potent than cisplatin” value was “at least 920 fold”, the “fold more potent than its platinum(II) precursor” value is on record as 17 fold and the “fold more potent than oxaliplatin” value is reported as 2230 fold. The GI50 in experiment [2] worked out at 1.3 ± 0.4 nM. This molecule had a GI50 in experiment [3] of 43 ± 8 nM. The “Percentage COX-2 Inhibitory Activity” value in experiment [4] is reported as 36 ± 2%. The “MtMP Changes” value in experiment [5] (HT29, 24 h) was determined as 412 ± 4 RFU. Further, in experiment [5] (HT29, 48 h), the “MtMP Changes” value came to 284 ± 12 RFU. In addition, the “MtMP Changes” value in experiment [5] (HT29, 72 h) is reported as 140 ± 5 RFU.

Consider `Cc1cc2c3c4c1=CC=C[N]4[Pt+2][N]3C=CC=2.N[C@H]1CCCC[C@@H]1N` [Complex 5MESS], for which the “Percentage COX-2 Inhibitory Activity” value in experiment [4] came to 6 ± 3%. In addition, the “MtMP Changes” value in experiment [5] (HT29, 24 h) is given as 210 ± 15 RFU; in experiment [5] (HT29, 48 h), 204 ± 6 RFU; in experiment [5] (HT29, 72 h), 144 ± 5 RFU.

Regarding `Cc1c(C)c2cccnc2c2ncccc12.N[C@H]1CCCC[C@@H]1N.[Pt]` [Complex 56MESS, [Pt^II(5,6-Me2phen)(SS-DACH)]^2+], the “Percentage COX-2 Inhibitory Activity” value in experiment [4] was 5 ± 4%. Besides, the “MtMP Changes” value in experiment [5] (HT29, 24 h) was 156 ± 10 RFU; in experiment [5] (HT29, 48 h), 162 ± 13 RFU; in experiment [5] (HT29, 72 h) it was 103 ± 7 RFU.

Turning to `C1=C[N]2[Pt+2][N]3C=CC=c4ccc(c2c43)=C1.N[C@H]1CCCC[C@@H]1N` [PHENSS], the “Percentage COX-2 Inhibitory Activity” value in experiment [4] turned out to be 8 ± 4%. Moreover, the “MtMP Changes” value worked out at 289 ± 17 RFU in experiment [5] (HT29, 24 h); 271 ± 15 RFU in experiment [5] (HT29, 48 h); 237 ± 10 RFU in experiment [5] (HT29, 72 h).
